Test results taken from US8614085B2, “Yeast with increased butanol tolerance involving a multidrug efflux pump gene” (Butamax(TM) Advanced Biofuels LLC, priority 2009, dated 2013).
Where two headings read alike, the source gives them in different places.

Assays:
[1] = system: homozygous diploid strain containing a PDR5 deletion mutation (strain #32409, S04); assay: Growth yield (OD600) of homozygous diploid PDR5 deletion strain in YPD medium with butanol; type: cell-based, Saccharomyces cerevisiae; settings: for OD600 after 23 hours incubation with 1-butanol / OD600 after 24 hours incubation with isobutanol: diploid PDR5 mutant, YPD, 30° C., inoculum OD600 0.01, average +/- SD; for growth yield of strain with the PDR5 deletion compared to BY4743: diploid
[2] = system: diploid parental strain BY4743; settings: YPD, 30° C., inoculum OD600 0.01, average +/- SD
Procedure: The inoculum OD600 was 0.01. The OD600 of each culture was measured after 24 hours incubation on a roller drum at 30° C. Triplicate cultures of each strain were tested. The average and standard deviation of the 24 hour growth yield measurements in each isobutanol concentration are given in Table 5.
The inoculum OD600 was 0.01. The OD600 of each culture was measured after 23 hours incubation on a roller drum at 30° C. Triplicate cultures of each strain were tested.

parental strain BY4741 = assay: Growth yield (OD600) of haploid parental strain in YPD medium with isobutanol; type: cell-based, Saccharomyces cerevisiae; settings: 30° C., inoculum OD600 0.01, average +/- SD
Procedure: (§1) A haploid strain of Saccharomyces cerevisiae containing a PDR5 deletion mutation (strain #2409) was obtained from Open Biosystems (Huntsville, Ala.) The deletion strain was made as part of the Saccharomyces Genome Deletion Project described in Winzeler al. (Science, 285:901-906, (1999)). […] The inoculum OD600 was 0.01. […] Duplicate cultures of each strain were tested.

[3] = system: haploid strain containing a PDR5 deletion mutation (strain #2409); assay: Growth yield (OD600) of haploid PDR5 deletion strain in YPD medium with isobutanol; type: cell-based, Saccharomyces cerevisiae; settings: for OD600 after 24 hours incubation with isobutanol: haploid PDR5 mutant, YPD, 30° C., inoculum OD600 0.01, average +/- SD; for growth yield of strain with the PDR5 deletion compared to BY4741: haploid, 24 hours
Procedure: as §1

## CCCCO [1-Butanol, 1-butanol]
[1]; 0.625 % w/v 1-butanol
  OD600 after 23 hours incubation with 1-butanol: 3.27 +/− 0.23
[1]; 0.75 % w/v 1-butanol
  OD600 after 23 hours incubation with 1-butanol: 0.40 +/− 0.02
[1]; 0.875 % w/v 1-butanol
  OD600 after 23 hours incubation with 1-butanol: 0.27 +/− 0.01
[1]; 0.625% w/v 1-butanol, 23 hours
  growth yield of strain with the PDR5 deletion compared to BY4743: 1.4 fold
[1]; 0.75% w/v 1-butanol, 23 hours
  growth yield of strain with the PDR5 deletion compared to BY4743: 1.3 fold
[1]; 0.875% w/v 1-butanol, 23 hours
  growth yield of strain with the PDR5 deletion compared to BY4743: 1.2 fold
[2]; 0.625 % w/v 1-butanol
  OD600 after 23 hours incubation with 1-butanol: 2.38 +/− 0.25
[2]; 0.75 % w/v 1-butanol
  OD600 after 23 hours incubation with 1-butanol: 0.30 +/− 0.03
[2]; 0.875 % w/v 1-butanol
  OD600 after 23 hours incubation with 1-butanol: 0.22 +/− 0.01

## CC(C)CO [Isobutanol, isobutanol]
Parental strain BY4741; 0.75 % w/v isobutanol
  OD600 after 24 hours incubation with isobutanol: 2.68 +/− 0.07
Parental strain BY4741; 0.875 % w/v isobutanol
  OD600 after 24 hours incubation with isobutanol: 0.692 +/− 0.04
Parental strain BY4741; 1 % w/v isobutanol
  OD600 after 24 hours incubation with isobutanol: 0.09 +/− 0.02
[1]; 0.25 % w/v isobutanol
  OD600 after 24 hours incubation with isobutanol: 7.51 +/− 0.11
[1]; 0.5 % w/v isobutanol
  OD600 after 24 hours incubation with isobutanol: 7.17 +/− 0.12
[1]; 0.75 % w/v isobutanol
  OD600 after 24 hours incubation with isobutanol: 4.91 +/− 0.29
[1]; 0.825 % w/v isobutanol
  OD600 after 24 hours incubation with isobutanol: 1.67 +/− 0.13
[1]; 1 % w/v isobutanol
  OD600 after 24 hours incubation with isobutanol: 0.16 +/− 0.01
[1]; 0.75% w/v isobutanol, 24 hours
  growth yield of strain with the PDR5 deletion compared to BY4743: 2.7 fold
[1]; 0.825% w/v isobutanol, 24 hours
  growth yield of strain with the PDR5 deletion compared to BY4743: 8.8 fold
[3]; 0.75 % w/v isobutanol
  OD600 after 24 hours incubation with isobutanol: 4.71 +/− 0.53
[3]; 0.875 % w/v isobutanol
  OD600 after 24 hours incubation with isobutanol: 2.45 +/− 0.42
[3]; 1 % w/v isobutanol
  OD600 after 24 hours incubation with isobutanol: 0.76 +/− 0.13
[3]; 0.75% w/v isobutanol
  growth yield of strain with the PDR5 deletion compared to BY4741: 1.8 fold
[3]; 0.825% w/v isobutanol
  growth yield of strain with the PDR5 deletion compared to BY4741: 3.5 fold
[3]; 1% w/v isobutanol
  growth yield of strain with the PDR5 deletion compared to BY4741: 8 fold
[2]; 0.25 % w/v isobutanol
  OD600 after 24 hours incubation with isobutanol: 7.36 +/− 0.04
[2]; 0.5 % w/v isobutanol
  OD600 after 24 hours incubation with isobutanol: 6.62 +/− 0.24
[2]; 0.75 % w/v isobutanol
  OD600 after 24 hours incubation with isobutanol: 1.84 +/− 0.36
[2]; 0.825 % w/v isobutanol
  OD600 after 24 hours incubation with isobutanol: 0.19 +/− 0.03
[2]; 1 % w/v isobutanol
  OD600 after 24 hours incubation with isobutanol: 0.08 +/− 0.01
